Article PMC12030627, “Radioiodinated Bicyclic RGD Peptide Derivatives for Enhanced Tumor Accumulation” (Pharmaceuticals, 2025)
Starred links: 1 amine or outer side, 2 acyl side, 3 side chain; linkers in the order of their positions; H or OH if unused. Positions of bridges follow the written chain, without caps; N, C: chain ends. Non-standard residues stand in square brackets, D forms with d. Residues, ends and D or L forms follow the SMILES beside them. *: point of attachment. Butanoyl(4-(4-I-phenyl)) = O=C(CCCc1ccc(I)cc1)*; TBMB = c1c(C[*:1])cc(C[*:3])cc1C[*:2]; Palmitoyl = CCCCCCCCCCCCCCCC(=O)*; Benzoyl(3-I) = O=C(c1cccc(I)c1)*; 4Abz = Nc1ccc(C(=O)O)cc1

Columns and labels:
[1] = test system: A549 and U-87 MG co-implantation mice; test: Biodistribution in A549 and U-87 MG co-implantation mice; format: in vivo, BALB/c nu-nu mice
Protocol: Animal experiments were performed in compliance with institutional animal care regulations, with the study protocol approved by the Experimental Animal Committee of Osaka Medical and Pharmaceutical University (Approval Numbers: 21–76, 22–76, and 23–76). Four-week-old male BALB/c nu-nu mice (Japan SLC, Shizuoka, Japan) were housed under a 12 h light/12 h dark cycle with free access to food and water. Tumor-bearing mice were established by suspending U-87 MG cells (2 × 10^6 cells/mouse) in PBS(–) and subcutaneously injecting 100 μL of the suspension into the right hind leg. For co-implantation models, A549 cells (2 × 10^6 cells/mouse) were suspended in PBS(–) and inoculated (100 μL) into the left hind leg of the same mice already inoculated with U-87 MG cells. Mice with tumor size approximately 10 mm in diameter, 4–5 weeks after inoculation, were used for biodistribution studies. Animals in which either tumor was not viable were excluded from the experiment.
U-87 MG-bearing mice (n = 42, 8–9 weeks old; 22–27 g) were randomly assigned into groups and administered [^125I]bcRGDpal or [^125I]bcRGDiba via intravenous injection (37 kBq in 100 μL of PBS containing 0.1% Tween 80 (PBS-T80)). At 5 min, 30 min, 1 h, 2 h, 6 h, 12 h, or 24 h post-injection, the mice were euthanized (n = 3 per time point). The heart, kidneys, liver, brain, pancreas, spleen, lung, small intestine, large intestine, muscle, skin, stomach, bone, and tumors were excised. Each organ’s weight and radioactivity were measured by a NaI well-type scintillation counter, and the % ID/g was calculated. To investigate the correlation between integrin expression and radioactivity accumulation, biodistribution at 2 h after administration of [^125I]bcRGDpal or [^125I]bcRGDiba was assessed in A549 and U-87 MG co-implantation mice (n = 5) using the same procedure. Additionally, co-implantation mice were injected with [^125I]bcRGDdimer (37 kBq/100 μL PBS-T80) and euthanized at 30 min, 2 h, and 4 h post-injection (n = 4 per time point), and % ID/g values were calculated as described above. The minimum sample size needed for the biodistribution study in U-87 MG-bearing mice was calculated using G Power software version 3.1.9.7. The calculation was based on a two-tailed test, with an effect size of 3.9, a significance level (α) of 0.05, and a statistical power (1 − β) of 0.8. […] The minimum required sample size for the biodistribution study in A549 and U-87 MG co-implantation mice was also calculated to be four animals per group (effect size = 2.5, α = 0.05, 1 − β = 0.8). To guarantee objective results, the experiment was carried out in a blinded manner. Specifically, drug administration and radioactivity measurements were conducted by different investigators to eliminate potential bias.

His-tagged integrin αVβ3 = biological target: T1, His-tagged integrin αVβ3 (Homo sapiens, UniProt P05106+P06756); test: In vitro selectivity assay, His-tag Dynabeads pulldown, integrin αVβ3; format: binding; conditions: for Radioactivity accumulation in αVβ3 protein: 10 kBq probe, 10 pmol His-tagged integrin, 37 °C 2 h, pH 7.4 buffer, without cyclo-(RGDfK); for Radioactivity accumulation in αVβ3 protein with cyclo-(RGDfK) blocking versus free: cyclo-(RGDfK) 25 μM preincubated 30 min at 37 °C, 2 h incubation, unpaired t-test p < 0.001
T1 construct: purchased ACRO Biosystems IT3-H52E3
Protocol: (§1) Binding assays were conducted following our previously reported method, using the Dynabeads™ His-Tag Isolation and Pulldown protocol (Thermo Fisher Scientific, Tokyo, Japan). Briefly, [^125I]bcRGDpal or [^125I]bcRGDiba (10 kBq/sample) was incubated at 37 °C for 2 h in 200 μL of incubation buffer (3.25 mM sodium phosphate, 70 mM NaCl, 0.01% Tween 20, pH 7.4) with 10 pmol of His-tagged integrin αVβ3, αVβ5, or α5β1 proteins (αVβ3: IT3-H52E3, ACRO Biosystems, Newark, DE, USA; αVβ5: 2528-AV, R&D Systems, Minneapolis, MN, USA; α5β1: CT014-H2508H, Sino Biological, Beijing, China). For the inhibition group, cyclo(RGDfK) (25 μM, S7834, Selleck, Houston, TX, USA) was preincubated with the integrin protein for 30 min at 37 °C. Next, A 2× binding buffer (100 mM sodium phosphate, 600 mM NaCl, 0.01% Tween 20, pH 8.0) was mixed with the solution at a 1:1 volume ratio and incubated with 5 μL of magnetic beads at 37 °C for 10 min to enable protein immobilization. Following immobilization, the beads were rinsed three times with the binding buffer, and radioactivity was measured using a NaI well-type scintillation counter (2480 Wizard2; PerkinElmer Japan, Yokohama, Japan). Protein binding was expressed as %dose/nmol protein.

His-tagged integrin αVβ5 = biological target: T2, His-tagged integrin αVβ5 (Homo sapiens, UniProt P06756+P18084); test: In vitro selectivity assay, His-tag Dynabeads pulldown, integrin αVβ5; format: binding; conditions: cyclo-(RGDfK) 25 μM blocking; 2 h incubation at 37 °C
T2 construct: purchased R&D Systems 2528-AV
Protocol: as §1

His-tagged integrin α5β1 = biological target: T3, His-tagged integrin α5β1 (Homo sapiens, UniProt P05556+P08648); test: In vitro selectivity assay, His-tag Dynabeads pulldown, integrin α5β1; format: binding; conditions: cyclo-(RGDfK) 25 μM blocking; 2 h incubation at 37 °C
T3 construct: purchased Sino Biological CT014-H2508H
Protocol: as §1

U-87 MG-bearing mice = test: Biodistribution in U-87 MG tumor-bearing mice; format: in vivo, BALB/c nu-nu mice; conditions: U-87 MG-bearing mice, mean ± SD, n = 3
How it was run: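 Male BALB/c nu/nu mice bearing subcutaneous U-87 MG (right leg), or also A549 (left leg), tumors ~10 mm; 37 kBq radiotracer given IV in PBS-0.1% Tween 80. Single-tumor mice sampled 5 min–24 h, co-implanted mice at 2 h (or 30 min–4 h for dimer); organ radioactivity counted by NaI scintillation, expressed as %ID/g.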

[2] = 30 min after i.v. administration, U-87 MG and A549 co-implanted mice, mean ± SD, n = 4
[3] = 2 h after i.v. administration, U-87 MG and A549 co-implanted mice, mean ± SD, n = 4
[4] = 4 h after i.v. administration, U-87 MG and A549 co-implanted mice, mean ± SD, n = 4
[5] = 5 min after i.v. administration
[6] = 30 min after i.v. administration

T1 sequence (P06756 31-992 limits assumed): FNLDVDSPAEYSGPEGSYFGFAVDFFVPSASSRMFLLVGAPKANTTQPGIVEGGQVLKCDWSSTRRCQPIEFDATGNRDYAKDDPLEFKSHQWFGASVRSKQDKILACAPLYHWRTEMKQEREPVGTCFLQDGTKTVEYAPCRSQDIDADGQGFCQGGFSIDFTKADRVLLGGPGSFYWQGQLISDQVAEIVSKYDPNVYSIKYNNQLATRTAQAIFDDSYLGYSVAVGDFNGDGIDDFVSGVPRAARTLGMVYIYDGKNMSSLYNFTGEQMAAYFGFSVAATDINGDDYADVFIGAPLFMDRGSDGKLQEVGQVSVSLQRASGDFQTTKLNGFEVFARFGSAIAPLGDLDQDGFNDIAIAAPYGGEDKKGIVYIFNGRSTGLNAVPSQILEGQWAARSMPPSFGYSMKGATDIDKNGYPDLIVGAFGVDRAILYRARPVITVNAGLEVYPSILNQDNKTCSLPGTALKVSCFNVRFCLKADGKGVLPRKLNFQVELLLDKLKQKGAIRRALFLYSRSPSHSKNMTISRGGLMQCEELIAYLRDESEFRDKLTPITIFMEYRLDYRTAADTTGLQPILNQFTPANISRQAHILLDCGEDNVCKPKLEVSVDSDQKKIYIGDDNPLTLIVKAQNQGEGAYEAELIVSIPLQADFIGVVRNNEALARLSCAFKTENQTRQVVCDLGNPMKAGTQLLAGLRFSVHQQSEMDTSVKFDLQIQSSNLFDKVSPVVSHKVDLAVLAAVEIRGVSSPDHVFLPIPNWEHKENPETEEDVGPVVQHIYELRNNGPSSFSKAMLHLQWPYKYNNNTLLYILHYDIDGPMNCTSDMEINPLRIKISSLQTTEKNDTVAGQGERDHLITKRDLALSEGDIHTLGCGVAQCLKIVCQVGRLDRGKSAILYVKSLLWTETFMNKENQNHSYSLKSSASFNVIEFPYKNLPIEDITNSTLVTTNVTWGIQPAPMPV
T1 sequence (P05106 27-718 limits assumed): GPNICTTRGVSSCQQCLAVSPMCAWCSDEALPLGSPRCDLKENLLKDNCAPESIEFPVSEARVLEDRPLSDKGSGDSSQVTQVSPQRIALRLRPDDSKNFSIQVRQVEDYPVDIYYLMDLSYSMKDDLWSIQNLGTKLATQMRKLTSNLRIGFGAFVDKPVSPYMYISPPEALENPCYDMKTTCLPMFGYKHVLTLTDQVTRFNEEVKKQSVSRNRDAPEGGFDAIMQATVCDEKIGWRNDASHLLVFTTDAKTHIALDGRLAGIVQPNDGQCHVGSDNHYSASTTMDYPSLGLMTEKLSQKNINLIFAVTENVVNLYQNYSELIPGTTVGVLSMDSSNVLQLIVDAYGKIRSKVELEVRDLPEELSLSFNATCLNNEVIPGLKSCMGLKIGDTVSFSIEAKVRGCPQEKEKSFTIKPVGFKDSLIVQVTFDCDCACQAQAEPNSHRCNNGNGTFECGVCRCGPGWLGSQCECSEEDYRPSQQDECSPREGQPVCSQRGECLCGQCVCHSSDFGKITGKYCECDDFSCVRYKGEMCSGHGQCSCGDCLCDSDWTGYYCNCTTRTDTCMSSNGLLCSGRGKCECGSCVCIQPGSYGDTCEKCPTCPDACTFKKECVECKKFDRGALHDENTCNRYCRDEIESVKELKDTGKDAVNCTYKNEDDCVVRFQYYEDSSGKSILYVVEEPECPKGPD
T2 sequence (P06756 31-992 limits assumed): as the sequence (P06756 31-992 limits assumed) above
T2 sequence (P18084 24-719 limits assumed): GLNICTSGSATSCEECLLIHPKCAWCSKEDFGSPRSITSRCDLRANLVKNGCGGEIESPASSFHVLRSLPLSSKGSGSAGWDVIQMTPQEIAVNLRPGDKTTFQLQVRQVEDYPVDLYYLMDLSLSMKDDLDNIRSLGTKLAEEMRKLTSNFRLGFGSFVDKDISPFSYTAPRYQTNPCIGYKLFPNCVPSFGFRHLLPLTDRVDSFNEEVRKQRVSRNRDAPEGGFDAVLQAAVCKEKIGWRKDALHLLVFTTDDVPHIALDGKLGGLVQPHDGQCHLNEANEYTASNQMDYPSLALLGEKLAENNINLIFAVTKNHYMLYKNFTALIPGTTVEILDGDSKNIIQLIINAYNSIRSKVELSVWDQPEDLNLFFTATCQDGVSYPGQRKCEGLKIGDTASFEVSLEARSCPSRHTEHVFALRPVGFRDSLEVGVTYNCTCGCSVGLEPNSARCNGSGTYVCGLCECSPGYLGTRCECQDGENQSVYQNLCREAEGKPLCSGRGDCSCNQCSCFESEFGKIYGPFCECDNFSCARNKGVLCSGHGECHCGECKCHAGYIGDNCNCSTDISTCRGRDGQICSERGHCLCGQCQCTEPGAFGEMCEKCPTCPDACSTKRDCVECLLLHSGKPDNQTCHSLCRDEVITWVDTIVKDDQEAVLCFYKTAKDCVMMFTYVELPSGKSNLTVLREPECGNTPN
T3 sequence (P08648 42-995 limits assumed): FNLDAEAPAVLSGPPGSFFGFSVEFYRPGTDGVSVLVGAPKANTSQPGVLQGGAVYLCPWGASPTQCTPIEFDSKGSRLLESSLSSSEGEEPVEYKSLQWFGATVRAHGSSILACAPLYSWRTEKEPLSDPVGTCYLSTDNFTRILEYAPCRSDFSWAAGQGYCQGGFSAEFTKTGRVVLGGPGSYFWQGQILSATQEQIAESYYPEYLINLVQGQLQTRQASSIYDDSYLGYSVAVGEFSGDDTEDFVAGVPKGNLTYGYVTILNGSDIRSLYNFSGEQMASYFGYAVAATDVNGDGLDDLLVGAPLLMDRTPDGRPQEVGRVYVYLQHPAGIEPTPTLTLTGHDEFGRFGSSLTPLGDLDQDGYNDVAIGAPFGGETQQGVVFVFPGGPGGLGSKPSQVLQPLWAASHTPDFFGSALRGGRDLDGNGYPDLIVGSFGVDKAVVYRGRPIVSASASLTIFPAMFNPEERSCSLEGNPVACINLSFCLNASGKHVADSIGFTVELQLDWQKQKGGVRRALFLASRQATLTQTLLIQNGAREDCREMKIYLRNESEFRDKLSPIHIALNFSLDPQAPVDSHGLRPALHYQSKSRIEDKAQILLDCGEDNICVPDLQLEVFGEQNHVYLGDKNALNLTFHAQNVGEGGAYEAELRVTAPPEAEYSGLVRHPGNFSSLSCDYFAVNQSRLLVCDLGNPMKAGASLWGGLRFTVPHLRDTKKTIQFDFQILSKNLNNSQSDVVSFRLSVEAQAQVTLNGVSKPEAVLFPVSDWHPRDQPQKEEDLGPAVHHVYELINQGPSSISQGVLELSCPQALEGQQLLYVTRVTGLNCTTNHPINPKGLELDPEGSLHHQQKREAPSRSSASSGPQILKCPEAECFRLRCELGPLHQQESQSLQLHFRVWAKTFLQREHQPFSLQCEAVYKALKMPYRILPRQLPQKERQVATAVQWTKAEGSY
T3 sequence (P05556 21-728 limits assumed): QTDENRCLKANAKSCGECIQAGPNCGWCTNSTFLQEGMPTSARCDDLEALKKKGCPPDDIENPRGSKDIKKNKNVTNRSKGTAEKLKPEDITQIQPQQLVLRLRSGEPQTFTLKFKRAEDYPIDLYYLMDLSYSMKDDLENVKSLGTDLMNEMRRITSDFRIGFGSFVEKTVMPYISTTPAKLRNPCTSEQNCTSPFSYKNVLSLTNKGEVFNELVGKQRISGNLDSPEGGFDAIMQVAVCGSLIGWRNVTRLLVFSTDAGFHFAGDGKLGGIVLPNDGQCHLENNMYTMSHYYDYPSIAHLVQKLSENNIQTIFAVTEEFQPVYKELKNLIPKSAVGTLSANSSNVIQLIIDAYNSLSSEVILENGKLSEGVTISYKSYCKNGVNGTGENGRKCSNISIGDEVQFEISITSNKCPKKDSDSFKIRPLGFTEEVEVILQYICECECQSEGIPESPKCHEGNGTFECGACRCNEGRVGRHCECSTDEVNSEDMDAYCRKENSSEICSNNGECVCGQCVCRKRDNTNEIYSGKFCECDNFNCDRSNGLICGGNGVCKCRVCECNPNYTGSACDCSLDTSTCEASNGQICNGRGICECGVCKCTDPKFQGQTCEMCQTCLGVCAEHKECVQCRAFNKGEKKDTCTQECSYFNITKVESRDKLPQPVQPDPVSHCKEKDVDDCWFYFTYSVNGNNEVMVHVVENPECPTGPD

SMILES | Radioactivity accumulation in αVβ3 protein (His-tagged integrin αVβ3) | Radioactivity accumulation in αVβ3 protein with cyclo-(RGDfK) blocking versus free (His-tagged integrin αVβ3) | Radioactivity accumulation in αVβ5 protein, treatment versus inhibitor group (His-tagged integrin αVβ5) | Radioactivity accumulation in α5β1 protein, treatment versus inhibitor group (His-tagged integrin α5β1) | U87/Blood radioactivity ratio (U-87 MG-bearing mice; [5]) | U87/Blood radioactivity ratio (U-87 MG-bearing mice; [6]) | U87/Muscle radioactivity ratio (U-87 MG-bearing mice; [6]) | U87/Blood radioactivity ratio (U-87 MG-bearing mice; 1 h after i.v. administration) | U87/Muscle radioactivity ratio (U-87 MG-bearing mice; 1 h after i.v. administration) | U87/Blood radioactivity ratio (U-87 MG-bearing mice; 2 h after i.v. administration) | U87/Muscle radioactivity ratio (U-87 MG-bearing mice; 2 h after i.v. administration) | U87/Blood radioactivity ratio (U-87 MG-bearing mice; 6 h after i.v. administration) | U87/Muscle radioactivity ratio (U-87 MG-bearing mice; 6 h after i.v. administration) | Radioactivity in thyroid (U-87 MG-bearing mice; 12 h after i.v. administration) [% injected dose] | U87/Blood radioactivity ratio (U-87 MG-bearing mice; 12 h after i.v. administration) | U87/Muscle radioactivity ratio (U-87 MG-bearing mice; 12 h after i.v. administration) | Radioactivity in U-87 MG tumor (U-87 MG-bearing mice; 24 h after i.v. administration) [% ID/g] | Radioactivity in brain (U-87 MG-bearing mice; 24 h after i.v. administration) | Radioactivity in thyroid (U-87 MG-bearing mice; 24 h after i.v. administration) [% injected dose] | U87/Blood radioactivity ratio (U-87 MG-bearing mice; 24 h after i.v. administration) | further results
N=C(N)NCCC[C@@H]1NC(=O)[C@H]2CSCc3cc(cc(c3)CSC[C@H](C(N)=O)NC(=O)[C@H](CC(=O)O)NC(=O)CNC1=O)CSC[C@H](NC(=O)CNC(=O)[C@H](CO)NC(=O)c1ccc(NC(=O)CNC(=O)[C@H](CO)NC(=O)[C@@H]3CCCN3C(=O)[C@@H]3CCCN3C(=O)[C@@H]3CCCN3C(=O)CCc3cn(CC[C@H](NC(=O)CCNC(=O)c4cccc(I)c4)C(=O)N4CCC[C@H]4C(=O)N4CCC[C@H]4C(=O)N4CCC[C@H]4C(=O)N[C@@H](CO)C(=O)NCC(=O)Nc4ccc(C(=O)N[C@@H](CO)C(=O)NCC(=O)N[C@H]5CSCc6cc7cc(c6)CSC[C@@H](NC(=O)[C@H](CCC(N)=O)NC(=O)[C@@H]6CCCN6C(=O)[C@H](Cc6c[nH]cn6)NC5=O)C(=O)N[C@@H](CCCNC(=N)N)C(=O)NCC(=O)N[C@@H](CC(=O)O)C(=O)N[C@@H](C(N)=O)CSC7)cc4)nn3)cc1)C(=O)N[C@@H](Cc1c[nH]cn1)C(=O)N1CCC[C@H]1C(=O)N[C@@H](CCC(N)=O)C(=O)N2 [[^125I]bcRGDdimer] |  |  |  |  |  |  |  |  |  |  |  |  |  |  |  |  |  |  |  |  | Radioactivity in thyroid [1, 2]: 0.0 ± 0.0 % injected dose; U87/Muscle radioactivity ratio [1, 2]: 7.1 ± 1.8; Radioactivity in brain [1, 3]: 0.0 ± 0.0 % injected dose per gram of tissue; Radioactivity in thyroid [1, 3]: 0.0 ± 0.0 % injected dose; U87/Blood radioactivity ratio [1, 3]: 22; U87/Muscle radioactivity ratio [1, 3]: 13.9 ± 6.8; Lung-to-blood radioactivity ratio ([1]; 2 h post-administration): 3.7; Accumulation ratio U87/A549 ([1]; 2 h post-administration, co-implanted mice): 5.4; Radioactivity in brain [1, 4]: 0.0 ± 0.0 % injected dose per gram of tissue; Radioactivity in thyroid [1, 4]: 0.0 ± 0.0 % injected dose; U87/Muscle radioactivity ratio [1, 4]: 10.3 ± 2.5
N=C(N)NCCC[C@@H]1NC(=O)[C@H]2CSCc3cc(cc(c3)CSC[C@H](C(N)=O)NC(=O)[C@H](CC(=O)O)NC(=O)CNC1=O)CSC[C@H](NC(=O)CNC(=O)[C@H](CO)NC(=O)c1ccc(NC(=O)CNC(=O)[C@H](CO)NC(=O)[C@@H]3CCCN3C(=O)[C@@H]3CCCN3C(=O)[C@@H]3CCCN3C(=O)[C@H](CCCCNC(=O)c3cccc(I)c3)NC(=O)CCCc3ccc(I)cc3)cc1)C(=O)N[C@@H](Cc1c[nH]cn1)C(=O)N1CCC[C@H]1C(=O)N[C@@H](CCC(N)=O)C(=O)N2 [[^125I]bcRGDiba] ({Butanoyl(4-(4-I-phenyl))}-K(Benzoyl(3-I))PPPSG[4Abz]SGCHPQ[dC]RGD[dC]-NH2; linker 10-14-18 via TBMB) | high radioactivity accumulation | significantly inhibited | No differences | No differences | 0.1 ± 0.0 | 0.2 ± 0.0 | 2.3 ± 0.6 | 0.2 ± 0.0 | 2.3 ± 0.4 | 0.3 ± 0.0 | 2.4 ± 0.3 | 0.3 ± 0.0 | 2.5 ± 0.3 | 0.0 ± 0.0 | 0.4 ± 0.1 | 2.6 ± 0.3 | 0.5 | 0.0 ± 0.0 % injected dose per gram of tissue | 0.0 ± 0.0 | 0.4 ± 0.1 | U87/Muscle radioactivity ratio (U-87 MG-bearing mice; [5]): 1.6 ± 0.3; U87/Muscle radioactivity ratio (U-87 MG-bearing mice; 24 h after i.v. administration): 2.1 ± 0.4
CCCCCCCCCCCCCCCC(=O)N[C@@H](CCCCNC(=O)c1cccc(I)c1)C(=O)N1CCC[C@H]1C(=O)N1CCC[C@H]1C(=O)N1CCC[C@H]1C(=O)N[C@@H](CO)C(=O)NCC(=O)Nc1ccc(C(=O)N[C@@H](CO)C(=O)NCC(=O)N[C@H]2CSCc3cc4cc(c3)CSC[C@@H](NC(=O)[C@H](CCC(N)=O)NC(=O)[C@@H]3CCCN3C(=O)[C@H](Cc3c[nH]cn3)NC2=O)C(=O)N[C@@H](CCCNC(=N)N)C(=O)NCC(=O)N[C@@H](CC(=O)O)C(=O)N[C@@H](C(N)=O)CSC4)cc1 [[^125I]bcRGDpal] (Palmitoyl-K(Benzoyl(3-I))PPPSG[4Abz]SGCHPQ[dC]RGD[dC]-NH2; linker 10-14-18 via TBMB) | high radioactivity accumulation | significantly inhibited | No differences | No differences | 0.1 ± 0.0 | 0.3 ± 0.0 | 2.1 ± 0.3 | 0.4 ± 0.1 | 2.9 ± 0.2 | 0.5 ± 0.0 | 3.7 ± 0.4 | 0.5 ± 0.1 | 3.3 ± 0.8 | 0.0 ± 0.0 | 0.4 ± 0.0 | 3.4 ± 0.5 | 0.3 | 0.0 ± 0.0 % injected dose per gram of tissue | 0.0 ± 0.0 | 0.5 ± 0.1 | U87/Muscle radioactivity ratio (U-87 MG-bearing mice; 24 h after i.v. administration): 2.4 ± 0.4
